Measured values taken from patent US20100298376A1, “USE OF NOVEL NEUROPROTECTIVE 3-SUBSTITUTED INDOLONE COMPOSITIONS” (BOARD OF REGENTS, THE UNIVERSITY OF TEXAS SYSTEM, priority 2009, published 2010).
Like-named read-outs stand apart in the source and are kept apart here.

Tested on: cerebellar granule neurons
Settings: for % neuronal survival Mean ± SD: Table 1, 24 hours, percent of HK control
Procedure: These compounds were analyzed for their neuroprotective activity in vitro. Granule neuron cultures were obtained from dissociated cerebella of 7-8 day old Wistar rats as known to one of ordinary skill in the art. Cells were plated in Basal Eagle's Medium with Earles salts (BME) supplemented with 10% fetal calf serum (FCS), 25 mM KCl, 2 mM glutamine (Invitrogen), and 100 μg/ml gentamycin on dishes (Nunc) coated with poly-L-lysine in 24-well dishes at a density 1×10^6 cells/well. Cytosine arabinofuranoside (10 μM) was added to the culture medium 18-22 hours after plating to prevent replication of non-neuronal cells that yields highly pure culture of granule neurons. The neuronal cultures were maintained for 7-8 days prior to treatments.
This experimental model of neuronal apoptosis has been used widely used to understand the molecular mechanisms underlying neurodegeneration and to identify biological and chemical agents with neuroprotective efficacy. For this, the cells were rinsed once and then maintained in low K^+ medium (serum-free BME medium, 5 mM KCl; referred to as LK), or in the case of control cultures, in high K^+ medium (serum-free BME medium, supplemented with 20 mM KCl; referred to as HK). Each compound was tested at three different concentrations of 1 μM, 5 μM, and 25 μM. The 25 μM concentration was included to evaluate neurotoxicity. For treatments, the chemical compounds (dissolved in dimethylsulfoxide) were added directly to LK medium at the time of the switch from HK at concentrations of 1 μM, 5 μM, or 25 μM. Viability was assessed 24 hours later. Each compound was tested in duplicate (at each of the concentrations) and the experiment repeated at least 3 times. Although all compounds were solubilized in dimethylsulfoxide (DMSO), the amount of DMSO in the cultures never exceeded 0.1% (v/v).
The viability status of neuronal cultures treated with HK, LK, or LK medium supplemented with various compounds was evaluated by phase contrast microscopy and quantified by staining cell nuclei with 4′,6′-diamidino2-phenylindole hydrochloride (DAPI). Briefly, the cells were fixed in 4% paraformaldehyde for 20 minutes at 4′C. After washing in phosphate buffered saline, DAPI (1 μg/ml in phosphate buffered saline) was added for 15 min at room-temperature and viewed under ultraviolet light (260 nm). Cells with condensed or fragmented nuclei were scored as dead. […] Statistical analysis was performed using an unpaired, two-tailed Student's t test, compared to mean neuronal survival of control cultures receiving LK treatment and the quantitative data are presented in Tables 1 and 2 for each compound.

[1] = LK medium, concentration not specified

Row | Structure (SMILES) | % neuronal survival Mean ± SD (1 μM in LK medium) [%] | % neuronal survival Mean ± SD (5 μM in LK medium) [%] | % neuronal survival Mean ± SD (25 μM in LK medium) [%] | neuroprotective activity (in words) (at all three concentrations) | neuroprotective activity (in words) [1] | neurotoxicity (in words)
1 | O=C1Nc2ccccc2/C1=C\c1cc(Br)cc(Br)c1 [Compound 2, (E)-3-(3′,5′-Dibromobenzylidene)indolin-2-one] | 54.7 ± 5.32 | 45.4 ± 4.32 | 46.9 ± 12.30 | not protective |  | 
2 | COc1cc(/C=C2\C(=O)Nc3ccccc32)cc(OC)c1OC [Compound 3, (Z)-3-(3′, 4′,5′-Trimethoxybenzylidene)indolin-2-one] | 50.8 ± 7.50 | 59.9 ± 7.98 | 61.3 ± 11.35 | not protective | reduced activity | 
3 | O=C1Nc2ccccc2C1=CC=Cc1ccccc1 [Compound 4, 3-(3′-Phenylallylidene)indolin-2-one] | 86.0 ± 2.03 | 83.6 ± 18.88 | 81.1 ± 6.22 | moderately efficacious | moderately protective | non-toxic
4 | O=C1Nc2ccccc2/C1=C\c1c(Cl)cccc1Cl [Compound 5, (E)-3-(2′,6′-Dichlorobezylidene)indolin-2-one] | 54.6 ± 10.27 | 52.9 ± 3.94 | 24.5 ± 12.38 |  | ineffective | toxic
5 | O=C1Nc2ccccc2/C1=C/c1ccccc1[N+](=O)[O-] [Compound 6] | 75.8 ± 3.20 | 76.6 ± 7.14 | 81.5 ± 13.72 |  |  | 
6 | O=C1Nc2ccc(Cl)cc2/C1=C/c1cc(Br)cc(Br)c1 [Compound 8, (Z)-3-(3′,5′-Dibromobenzylidene)-5-chloroindolin-2-one] | 77.7 ± 17.51 | 68.5 ± 11.86 | 64.4 ± 9.65 |  | substantially less effective | 
7 | CC(=O)Oc1c(Br)cc(/C=C2/C(=O)Nc3ccc(Cl)cc32)cc1Br [Compound 9, (E)-2,6-Dibromo-4-(5′-chloro-2′-oxoindolin-3-ylidene)methyl)phenyl acetate] | 73.0 ± 5.59 | 84.6 ± 16.19 | 75.2 ± 31.54 |  | reduced activity | 
8 | COc1cc(/C=C2\C(=O)Nc3ccc(Cl)cc32)cc(OC)c1OC [Compound 10, (Z)-5-Chloro-3-(3′, 4′,5′-trimethoxybenzylidene)indolin-2-one] | 81.1 ± 9.81 | 71.0 ± 7.26 | 57.1 ± 10.13 |  |  | 
9 | O=C1Nc2ccc(Cl)cc2/C1=C\c1c(Cl)cccc1Cl [Compound 11, (E)-5-Chloro-3-(2′,6′-dichlorobenzylidene)indolin-2-one] | 56.4 ± 14.41 | 63.8 ± 3.46 | 45.7 ± 24.05 |  |  | 
10 | O=C1Nc2ccc(Cl)cc2/C1=C\c1ccccc1 [Compound 12, (E)-3-Benzylidene-5-chloroindolin-2-one] | 58.6 ± 3.27 | 63.8 ± 8.63 | 41.1 ± 21.41 |  | not effective | 
11 | Cc1ccc(/C=C2/C(=O)Nc3ccc(Cl)cc32)cc1 [Compound 13, (E)-5-Chloro-3-(4′-methybenzylidene)indolin-2-one] | 70.0 ± 17.50 | 70.6 ± 13.86 | 67.4 ± 17.40 |  |  | 
12 | CN(C)c1ccc(/C=C2/C(=O)Nc3ccc(Cl)cc32)cc1 [Compound 15, (E)-5-Chloro-3-(4′-(dimethylamino)benzylidene)indolin-2-one] | 51.8 ± 15.66 | 55.8 ± 16.94 | 79.7 ± 4.69 |  |  | 
13 | O=C1Nc2ccc(Br)cc2/C1=C/c1cc(Br)cc(Br)c1 [Compound 17, (Z)-5-Bromo-3-(3′,5′-dibromobenzylidene)indolin-2-one] | 54.7 ± 8.56 | 45.4 ± 3.05 | 46.9 ± 7.74 |  |  | 
14 | COc1cc(/C=C2\C(=O)Nc3ccc(Br)cc32)cc(OC)c1OC [Compound 18, (Z)-5-Bromo-3-(3′, 4′,5′-trimethoxybenzylidene)indolin-2-one] | 50.8 ± 7.67 | 59.9 ± 12.94 | 61.3 ± 1.20 |  | not effective | 
15 | COc1ccc(/C=C2/C(=O)Nc3ccc(Br)cc32)cc1 [Compound 19, (E)-5-Bromo-3-(4′-methoxybenzylidene)indolin-2-one] | 57.1 ± 4.51 | 59.5 ± 9.10 | 60.5 ± 9.56 |  | not effective | 
16 | CN(C)c1ccc(/C=C2/C(=O)Nc3ccc(Br)cc32)cc1 [Compound 20, (E)-5-Bromo-3-(4′-(dimethylamino)benzylidene)indolin-2-one] | 56.5 ± 2.28 | 54.9 ± 9.18 | 68.6 ± 9.38 |  | not effective | 
17 | O=C1Nc2ccc([N+](=O)[O-])cc2/C1=C/c1cc(Br)cc(Br)c1 [Compound 22, (Z)-3-(3′,5′-Dibromobenzylidene)-5-nitroindolin-2-one] | 78.1 ± 5.82 | 78.7 ± 15.86 | 74.5 ± 9.12 |  |  | 
18 | COc1cc(/C=C2\C(=O)Nc3ccc([N+](=O)[O-])cc32)cc(OC)c1OC [Compound 23, (Z)-3-(3′, 4′,5′-Trimethoxybenzylidene)-5-nitroindolin-2-one] | 76.6 ± 15.98 | 61.9 ± 5.87 | 69.0 ± 11.26 |  |  | 
19 | O=C1Nc2ccc([N+](=O)[O-])cc2/C1=C\c1c(Cl)cccc1Cl [Compound 24, (E)-3-(2′,6′-Dichlorobenzylidene)-5-nitroindolin-2-one] | 76.4 ± 9.84 | 69.9 ± 11.25 | 70.7 ± 8.50 |  |  | 
20 | O=C1Nc2ccc([N+](=O)[O-])cc2/C1=C/c1ccccc1 [Compound 25, (Z)-3-Benzylidene-5-nitroindolin-2-one] | 80.1 ± 18.01 | 78.4 ± 17.54 | 54.3 ± 3.63 | moderately efficacious |  | 
21 | O=C1Nc2ccc([N+](=O)[O-])cc2/C1=C\C=C\c1ccccc1 [Compound 26] | 80.1 ± 4.21 | 78.6 ± 13.04 | 83.9 ± 9.28 |  |  | 
22 | O=C1Nc2ccc([N+](=O)[O-])cc2/C1=C\C=Cc1ccccc1[N+](=O)[O-] [Compound 27] | 78.6 ± 6.84 | 51.9 ± 7.50 | 78.6 ± 16.33 |  |  | 
23 | Cc1ccc(/C=C2\C(=O)Nc3ccc([N+](=O)[O-])cc32)cc1 [Compound 28, (Z)-3-(4′-Methylbenzylidene)-5-nitroindolin-2-one] | 54.6 ± 7.48 | 60.0 ± 1.87 | 54.3 ± 0.49 |  |  | 
24 | CN(C)c1ccc(/C=C2\C(=O)Nc3ccc([N+](=O)[O-])cc32)cc1 [Compound 29, (Z)-3-(4′-(Dimethylamino)benzylidene)-5-nitroindolin-2-one] | 70.4 ± 9.37 | 67.6 ± 10.31 | 66.9 ± 9.86 |  |  | 
25 | O=C1Nc2ccc(F)cc2/C1=C\c1cc(Br)c(O)c(Br)c1 [Compound 30, (E)-3-(3′,5′-Dibromo-4′-hydroxybenzylidene)-5-fluoro-indolin-2-one] | 49.3 ± 10.34 | 69.6 ± 8.96 | 18.1 ± 11.00 |  | not effective | toxic
26 | COc1cc(/C=C2\C(=O)Nc3ccc(F)cc32)cc(OC)c1OC [Compound 32, (Z)-5-Fluoro-3-(3′, 4′,5′-trimethoxybenzylidene)indolin-2-one] | 59.2 ± 1.77 | 51.9 ± 7.14 | 31.9 ± 1.77 |  | not effective | 
